The text below walks through data of ChEMBL document CHEMBL3734752, “Acylhydrazone derivatives as potential anticancer agents: Synthesis, bio-evaluation and mechanism of action” (Bioorg Med Chem Lett, 2015).

≈ marks a conversion by molar mass, not a printed value. Calls of active or inactive are those of the source. The calls are words filed in the database; no cut-off is given here. A value given as a limit tells only on which side of the number the result lay.

In experiment [1] the test system is Huh-7. Put plainly: (§1) Cytotoxicity against human HuH7 cells assessed as inhibition of cell proliferation at 40 ug/ml after 72 hrs by MTT assay. It is filed as functional.
Experiment [2] has as its system Huh-7. Put plainly: (§2) Cytotoxicity against human HuH7 cells assessed as inhibition of cell proliferation after 72 hrs by MTT assay. It is filed as functional, cell-based.
Experiment [3] is described as follows: as §2. It is filed as functional, cell-based. Particulars: Huh-7, 72 h.
In experiment [4] the test system is HepG2. Put plainly: Cytotoxicity against human HepG2 cells assessed as inhibition of cell proliferation at 40 ug/ml after 72 hrs by MTT assay. It is filed as functional, cell-based.
Experiment [5] deals with BCG823. Put plainly: Cytotoxicity against human BCG823 cells assessed as inhibition of cell proliferation at 40 ug/ml after 72 hrs by MTT assay. It is filed as functional, cell-based.
The test system of experiment [6] is HepG2. Put plainly: Cytotoxicity against human HepG2 cells assessed as inhibition of cell proliferation after 72 hrs by MTT assay. It is filed as functional, cell-based. Particulars: for IC50: HepG2, 72 h.
Experiment [7] concerns BCG823. Put plainly: (§3) Cytotoxicity against human BCG823 cells assessed as inhibition of cell proliferation after 72 hrs by MTT assay. It is filed as functional, cell-based.
Experiment [8] in a line: as §3. It is filed as functional, cell-based. The conditions noted are these: BCG823, 72 h.
For experiment [9], the system named is HepG2. Put plainly: Induction of apoptosis in human HepG2 cells assessed as viable cells at IC50 concentration after 24 hrs by Annexin V-FITC/propidium iodide staining-based flow cytometry (reference value: 97 %). It is filed as functional.
Experiment [10] has as its system HepG2. Put plainly: Induction of apoptosis in human HepG2 cells assessed as necrotic cells at IC50 concentration after 24 hrs by Annexin V-FITC/propidium iodide staining-based flow cytometry (reference value: 1.6 %). It is filed as functional.
In experiment [11] the test system is HepG2. Put plainly: Induction of apoptosis in human HepG2 cells assessed as necrotic cells at 2 times IC50 after 24 hrs by Annexin V-FITC/propidium iodide staining-based flow cytometry (reference value: 1.6 %). It is filed as functional.
Experiment [12] relates to HepG2. Put plainly: Induction of apoptosis in human HepG2 cells assessed as early apoptotic cells at IC50 concentration after 24 hrs by Annexin V-FITC/propidium iodide staining-based flow cytometry (reference value: 1.2 %). It is filed as functional.
For experiment [13], the system named is HepG2. Put plainly: Induction of apoptosis in human HepG2 cells assessed as viable cells at 2 times IC50 after 24 hrs by Annexin V-FITC/propidium iodide staining-based flow cytometry (reference value: 97 %). It is filed as functional.
Experiment [14] deals with HepG2. Put plainly: Induction of apoptosis in human HepG2 cells assessed as early apoptotic cells at 2 times IC50 after 24 hrs by Annexin V-FITC/propidium iodide staining-based flow cytometry (reference value: 1.2 %). It is filed as functional.
The test system of experiment [15] is HepG2. Put plainly: Induction of apoptosis in human HepG2 cells assessed as late apoptotic cells at 2 times IC50 after 24 hrs by Annexin V-FITC/propidium iodide staining-based flow cytometry (reference value: 0.2 %). It is filed as functional.
The subject of experiment [16] is HepG2. Put plainly: Induction of apoptosis in human HepG2 cells assessed as late apoptotic cells at IC50 concentration after 24 hrs by Annexin V-FITC/propidium iodide staining-based flow cytometry (reference value: 0.2 %). It is filed as functional.
Experiment [17] can be described thus: as §1. The conditions noted are these: Huh-7, 72 h. It is filed as functional.

As to `C/C(=N\NC(=O)CSc1nc2ccccc2s1)c1ccc(C)c([N+](=O)[O-])c1`, the inhibition result in the experiment on Huh-7 [1], in the experiment with HepG2 [4] and with BCG823 [5] was “Active” in each case. The inhibition result in the experiment on Huh-7 [2], with HepG2 [6] and in the experiment with BCG823 [7] was “Dose-dependent effect” each time. Besides, the IC50 in [3] was found to be 10.1 µg/mL (≈ 25.1 µM); in the experiment on HepG2 [6], 33 µg/mL (≈ 82.3 µM); in experiment [8], 17.8 µg/mL (≈ 44.5 µM).
As for `O=C1Nc2ccccc2/C1=N/NC(=O)c1ccc(CSc2nc3ccccc3s2)cc1`, the Activity in the experiment with HepG2 [9] was 89.3%; in the experiment with HepG2 [10] it was 1.6%; in the experiment with HepG2 [11], 5.6%; with HepG2 [12], 5.5%; in the experiment with HepG2 [13], 77.7%; in the experiment with HepG2 [14] it was 14.5%. The Activity in the experiment on HepG2 [15] stood at 2.2%; in the experiment with HepG2 [16] it was 3.7%. In addition, the inhibition entry in the experiment with Huh-7 [1], in the experiment on HepG2 [4] and in the experiment on BCG823 [5] was “Active” each time. For the same compound, the IC50 came out at 4.58 µg/mL (≈ 10.3 µM) in experiment [3], 5.71 µg/mL (≈ 12.8 µM) with HepG2 [6] and 11.9 µg/mL (≈ 26.7 µM) in experiment [8]. For the same compound, the inhibition entry in the experiment on HepG2 [6] and with BCG823 [7] was “Dose-dependent effect” throughout.
With `O=C(N/N=C/c1c[nH]c2ccccc12)c1ccc(CSc2nc3ccccc3s2)cc1`, in [17], the inhibition at 40 µg/mL was found to be 74%. For the same compound, the IC50 in [3] was 7.74 µg/mL (≈ 17.5 µM); in the experiment on HepG2 [6], more than 80 µg/mL; in [8], more than 80 µg/mL.
As to `C/C(=N\NC(=O)c1ccc(CSc2nc3ccccc3s2)cc1)c1ccc([N+](=O)[O-])cc1`, the half-inhibitory concentration (IC50) in [3] was found to be 4.46 µg/mL (≈ 9.64 µM); in the experiment with HepG2 [6] it was 35.7 µg/mL (≈ 77.2 µM); in [8], 31.3 µg/mL (≈ 67.7 µM).
For `C/C(=N\NC(=O)CSc1nc2ccccc2s1)c1ccc([N+](=O)[O-])cc1`, the IC50 is 39.7 µg/mL (≈ 103 µM) in experiment [3], more than 80 µg/mL in the experiment with HepG2 [6] and 35.7 µg/mL (≈ 92.4 µM) in experiment [8].
For `COc1cc(/C=N/NC(=O)c2ccc(CSc3nc(C)cc(C)n3)cc2)cc(OC)c1OC`, in that order: 17.4 µg/mL (≈ 37.3 µM), 33.3 µg/mL (≈ 71.3 µM) and 36.8 µg/mL (≈ 78.8 µM).
For `Cc1cc(C)nc(SCc2ccc(C(=O)N/N=C/c3c[nH]c4ccccc34)cc2)n1`, in that order: 23.2 µg/mL (≈ 55.9 µM), 34.1 µg/mL (≈ 82.2 µM) and 35.5 µg/mL (≈ 85.5 µM).
Consider `C/C(=N\NC(=O)c1ccc(CSc2nc(C)cc(C)n2)cc1)c1ccc(F)cc1`, for which the Activity is recorded as 83.8% with HepG2 [9]; 4.5% in the experiment with HepG2 [10]; 4.9% with HepG2 [11]; 10.3% with HepG2 [12]; 76.3% with HepG2 [13]; 16.5% with HepG2 [14]. Besides, the values for the Activity in the experiment with HepG2 [15] and with HepG2 [16] were 2.3% and 1.4%, respectively. In addition, the inhibition result with Huh-7 [1], in the experiment on HepG2 [4] and in the experiment with BCG823 [5] was “Active” in each case. Further, the values for the half-inhibitory concentration (IC50) (in experiment [3]; in the experiment on HepG2 [6]; in experiment [8]) were 3.25 µg/mL (≈ 7.96 µM), 4.85 µg/mL (≈ 11.9 µM) and 3.88 µg/mL (≈ 9.5 µM), respectively. In addition, the inhibition result in the experiment on HepG2 [6] and in the experiment with BCG823 [7] was “Dose-dependent effect” in each case.
Take `O=c1[nH]cc(F)c(=O)[nH]1` [FLUOROURACIL]: the inhibition result with Huh-7 [2], in the experiment on HepG2 [6] and in the experiment with BCG823 [7] was “Dose-dependent effect” in each case. The IC50 was 10.4 µg/mL (≈ 80 µM) in [3], 36 µg/mL (≈ 277 µM) with HepG2 [6] and 17.4 µg/mL (≈ 134 µM) in [8].
With `C/C(=N\NC(=O)c1ccc(CSc2nc3ccccc3s2)cc1)c1ccc(C)c([N+](=O)[O-])c1`, the IC50 (in [3]; in the experiment on HepG2 [6]; in [8]) was more than 80 µg/mL throughout.
With `C/C(=N\NC(=O)c1ccc(CSc2nc(C)cc(C)n2)cc1)c1ccc(C)c([N+](=O)[O-])c1`, the concentration for half-maximal inhibition (IC50) (in experiment [3]; in the experiment with HepG2 [6]; in experiment [8]) was more than 80 µg/mL each time.
Consider `COc1cc(/C=N/NC(=O)CSc2nc3ccccc3s2)cc(OC)c1OC`, for which the IC50 (in experiment [3]; with HepG2 [6]; in experiment [8]) was more than 80 µg/mL each time.
On to `O=C(CSc1nc2ccccc2s1)N/N=C/c1c[nH]c2ccccc12`, for which the inhibition at 40 µg/mL in experiment [17] is 55%. Also, the results for the IC50 (in experiment [3]; with HepG2 [6]; in experiment [8]) were 32.9 µg/mL (≈ 89.7 µM), more than 80 µg/mL and more than 80 µg/mL, respectively.
As for `COc1cc(/C=N/NC(=O)c2ccc(CSc3nc4ccccc4s3)cc2)cc(OC)c1OC`, the concentration for half-maximal inhibition (IC50) (in [3]; with HepG2 [6]; in experiment [8]) was more than 80 µg/mL in each case.
For `O=C(CSc1nc2ccccc2s1)N/N=C1\C(=O)Nc2ccccc21`, the inhibition result in the experiment with Huh-7 [1], with HepG2 [4] and in the experiment on BCG823 [5] was “Active” throughout. For the same compound, the IC50 in [3] came to 13.1 µg/mL (≈ 35.6 µM); in the experiment on HepG2 [6], 23.9 µg/mL (≈ 65 µM); in [8], 17.7 µg/mL (≈ 48 µM).
